Experimental data as given in US20250333424A1, “ANTIVIRAL COMPOUNDS” (Gilead Sciences, Inc., priority 2024, published 2025).

Tested on: monocytic THP1 cells infected with HIV VSV-G pseudotyped GFP-NEF reporter virus
Assay: cells
Type: cell-based
Conditions: Human immunodeficiency virus 1, THP-1, 24 h

Row | Structure (SMILES) | EC50
1 | COCCN1C(=O)c2nc(NC34CC(C#N)(C3)C4)nc(Oc3c(C)cc(/C=C/C#N)cc3C)c2C1C (stereo not drawn) [Example 203, (E)-3-((4-(4-(2-cyanovinyl)-2,6-dimethylphenoxy)-6-(2-methoxyethyl)-5-methyl-7-oxo-6,7-dihydro-5H-pyrrolo[3,4-d]pyrimidin-2-yl)amino)bicyclo[1.1.1]pentane-1-carbonitrile] | 27.5 nM
2 | CCN1C(=O)c2nc(NC34CC(C#N)(C3)C4)nc(Oc3c(C)cc(/C=C/C#N)cc3C)c2C1C (stereo not drawn) [Example 204, (E)-3-((4-(4-(2-cyanovinyl)-2,6-dimethylphenoxy)-6-ethyl-5-methyl-7-oxo-6,7-dihydro-5H-pyrrolo[3,4-d]pyrimidin-2-yl)amino)bicyclo[1.1.1]pentane-1-carbonitrile] | 23.4 nM
3 | C=CCN1C(=O)c2nc(NC34CC(C#N)(C3)C4)nc(Oc3c(C)cc(/C=C/C#N)cc3C)c2C1C (stereo not drawn) [Example 205, (E)-3-((6-allyl-4-(4-(2-cyanovinyl)-2,6-dimethylphenoxy)-5-methyl-7-oxo-6,7-dihydro-5H-pyrrolo[3,4-d]pyrimidin-2-yl)amino)bicyclo[1.1.1]pentane-1-carbonitrile] | 42.7 nM
4 | Cc1cc(/C=C/C#N)cc(C)c1Oc1nc(NC23CC(C#N)(C2)C3)nc2c1C(C)N(C(C)C)C2=O (stereo not drawn) [Example 206, (E)-3-((4-(4-(2-cyanovinyl)-2,6-dimethylphenoxy)-6-isopropyl-5-methyl-7-oxo-6,7-dihydro-5H-pyrrolo[3,4-d]pyrimidin-2-yl)amino)bicyclo[1.1.1]pentane-1-carbonitrile] | 280 nM
5 | Cc1cc(/C=C/C#N)cc(C)c1Oc1nc(NC23CC(C#N)(C2)C3)nc2c1C(C)N(CCC(F)(F)F)C2=O (stereo not drawn) [Example 207, (E)-3-((4-(4-(2-cyanovinyl)-2,6-dimethylphenoxy)-5-methyl-7-oxo-6-(3,3,3-trifluoropropyl)-6,7-dihydro-5H-pyrrolo[3,4-d]pyrimidin-2-yl)amino)bicyclo[1.1.1]pentane-1-carbonitrile] | 70.3 nM
6 | Cc1cc(/C=C/C#N)cc(C)c1Oc1nc(NC23CC(C#N)(C2)C3)nc2c1C(C)N(C1COC1)C2=O (stereo not drawn) [Example 208, (E)-3-((4-(4-(2-cyanovinyl)-2,6-dimethylphenoxy)-5-methyl-6-(oxetan-3-yl)-7-oxo-6,7-dihydro-5H-pyrrolo[3,4-d]pyrimidin-2-yl)amino)bicyclo[1.1.1]pentane-1-carbonitrile] | 28.8 nM
7 | Cc1cc(/C=C/C#N)cc(C)c1Oc1nc(NC23CC(C#N)(C2)C3)nc2c1C(C)N(CCc1cn(C)cn1)C2=O (stereo not drawn) [Example 209, (E)-3-((4-(4-(2-cyanovinyl)-2,6-dimethylphenoxy)-5-methyl-6-(2-(1-methyl-1H-imidazol-4-yl)ethyl)-7-oxo-6,7-dihydro-5H-pyrrolo[3,4-d]pyrimidin-2-yl)amino)bicyclo[1.1.1]pentane-1-carbonitrile] | 57.7 nM
8 | Cc1cc(/C=C/C#N)cc(C)c1Oc1nc(NC23CC(C#N)(C2)C3)nc2c1C(C)N(CC1CC1)C2=O (stereo not drawn) [Example 210, (E)-3-((4-(4-(2-cyanovinyl)-2,6-dimethylphenoxy)-6-(cyclopropylmethyl)-5-methyl-7-oxo-6,7-dihydro-5H-pyrrolo[3,4-d]pyrimidin-2-yl)amino)bicyclo[1.1.1]pentane-1-carbonitrile] | 125 nM
9 | Cc1cc(/C=C/C#N)cc(C)c1Oc1nc(NC23CC(C#N)(C2)C3)nc2c1C(C)N(CCc1cnn(C)c1)C2=O (stereo not drawn) [Example 211, (E)-3-((4-(4-(2-cyanovinyl)-2,6-dimethylphenoxy)-5-methyl-6-(2-(1-methyl-1H-pyrazol-4-yl)ethyl)-7-oxo-6,7-dihydro-5H-pyrrolo[3,4-d]pyrimidin-2-yl)amino)bicyclo[1.1.1]pentane-1-carbonitrile] | 54.5 nM
10 | Cc1cc(/C=C/C#N)cc(C)c1Oc1nc(NC23CC(C#N)(C2)C3)nc2c1C(C)N(Cc1ccnn1C)C2=O (stereo not drawn) [Example 212, (E)-3-((4-(4-(2-cyanovinyl)-2,6-dimethylphenoxy)-5-methyl-6-((1-methyl-1H-pyrazol-5-yl)methyl)-7-oxo-6,7-dihydro-5H-pyrrolo[3,4-d]pyrimidin-2-yl)amino)bicyclo[1.1.1]pentane-1-carbonitrile] | 47.1 nM
11 | Cc1cc(/C=C/C#N)cc(C)c1Oc1nc(NC23CC(C#N)(C2)C3)nc2c1C(C)N(Cc1nccn1C)C2=O (stereo not drawn) [Example 213, (E)-3-((4-(4-(2-cyanovinyl)-2,6-dimethylphenoxy)-5-methyl-6-((1-methyl-1H-imidazol-2-yl)methyl)-7-oxo-6,7-dihydro-5H-pyrrolo[3,4-d]pyrimidin-2-yl)amino)bicyclo[1.1.1]pentane-1-carbonitrile] | 43.9 nM
12 | Cc1cc(/C=C/C#N)cc(C)c1Oc1nc(NC23CC(C#N)(C2)C3)nc2c1C(C)N(CCN1CCOCC1)C2=O (stereo not drawn) [Example 214, (E)-3-((4-(4-(2-cyanovinyl)-2,6-dimethylphenoxy)-5-methyl-6-(2-morpholinoethyl)-7-oxo-6,7-dihydro-5H-pyrrolo[3,4-d]pyrimidin-2-yl)amino)bicyclo[1.1.1]pentane-1-carbonitrile] | 59.1 nM
13 | Cc1cc(/C=C/C#N)cc(C)c1Oc1nc(NC23CC(C#N)(C2)C3)nc2c1C(C)N(C1CCOCC1)C2=O (stereo not drawn) [Example 215, (E)-3-((4-(4-(2-cyanovinyl)-2,6-dimethylphenoxy)-5-methyl-7-oxo-6-(tetrahydro-2H-pyran-4-yl)-6,7-dihydro-5H-pyrrolo[3,4-d]pyrimidin-2-yl)amino)bicyclo[1.1.1]pentane-1-carbonitrile] | 109 nM
14 | Cc1cc(/C=C/C#N)cc(C)c1Oc1nc(NC23CC(C#N)(C2)C3)nc2c1C(C)N(C1CCC1)C2=O (stereo not drawn) [Example 216, (E)-3-((4-(4-(2-cyanovinyl)-2,6-dimethylphenoxy)-6-cyclobutyl-5-methyl-7-oxo-6,7-dihydro-5H-pyrrolo[3,4-d]pyrimidin-2-yl)amino)bicyclo[1.1.1]pentane-1-carbonitrile] | 77.8 nM
15 | Cc1cc(/C=C/C#N)cc(C)c1Oc1nc(NC23CC(C#N)(C2)C3)nc2c1C(C)N(c1cnn(C(F)(F)F)c1)C2=O (stereo not drawn) [Example 217, (E)-3-((4-(4-(2-cyanovinyl)-2,6-dimethylphenoxy)-5-methyl-7-oxo-6-(1-(trifluoromethyl)-1H-pyrazol-4-yl)-6,7-dihydro-5H-pyrrolo[3,4-d]pyrimidin-2-yl)amino)bicyclo[1.1.1]pentane-1-carbonitrile] | 157 nM
16 | CCn1cc(N2C(=O)c3nc(NC45CC(C#N)(C4)C5)nc(Oc4c(C)cc(/C=C/C#N)cc4C)c3C2C)cn1 (stereo not drawn) [Example 218, (E)-3-((4-(4-(2-cyanovinyl)-2,6-dimethylphenoxy)-6-(1-ethyl-1H-pyrazol-4-yl)-5-methyl-7-oxo-6,7-dihydro-5H-pyrrolo[3,4-d]pyrimidin-2-yl)amino)bicyclo[1.1.1]pentane-1-carbonitrile] | 47.3 nM
17 | COCCn1cc(N2C(=O)c3nc(NC45CC(C#N)(C4)C5)nc(Oc4c(C)cc(/C=C/C#N)cc4C)c3C2C)cn1 (stereo not drawn) [Example 219, (E)-3-((4-(4-(2-cyanovinyl)-2,6-dimethylphenoxy)-6-(1-(2-methoxyethyl)-1H-pyrazol-4-yl)-5-methyl-7-oxo-6,7-dihydro-5H-pyrrolo[3,4-d]pyrimidin-2-yl)amino)bicyclo[1.1.1]pentane-1-carbonitrile] | 40.7 nM
18 | Cc1cc(/C=C/C#N)cc(C)c1Oc1nc(NC23CC(C#N)(C2)C3)nc2c1C(C)N(c1c(C)nn(C)c1C)C2=O (stereo not drawn) [Example 220, (E)-3-((4-(4-(2-cyanovinyl)-2,6-dimethylphenoxy)-5-methyl-7-oxo-6-(1,3,5-trimethyl-1H-pyrazol-4-yl)-6,7-dihydro-5H-pyrrolo[3,4-d]pyrimidin-2-yl)amino)bicyclo[1.1.1]pentane-1-carbonitrile] | 155 nM
19 | Cc1cc(/C=C/C#N)cc(C)c1Oc1nc(NC23CC(C#N)(C2)C3)nc2c1C(C)N(c1cnn(C)c1C)C2=O (stereo not drawn) [Example 221, (E)-3-((4-(4-(2-cyanovinyl)-2,6-dimethylphenoxy)-6-(1,5-dimethyl-1H-pyrazol-4-yl)-5-methyl-7-oxo-6,7-dihydro-5H-pyrrolo[3,4-d]pyrimidin-2-yl)amino)bicyclo[1.1.1]pentane-1-carbonitrile] | 72.9 nM
20 | Cc1cc(/C=C/C#N)cc(C)c1Oc1nc(NC23CC(C#N)(C2)C3)nc2c1C(C)N(c1cn(C)nc1C)C2=O (stereo not drawn) [Example 222, (E)-3-((4-(4-(2-cyanovinyl)-2,6-dimethylphenoxy)-6-(1,3-dimethyl-1H-pyrazol-4-yl)-5-methyl-7-oxo-6,7-dihydro-5H-pyrrolo[3,4-d]pyrimidin-2-yl)amino)bicyclo[1.1.1]pentane-1-carbonitrile] | 70.7 nM
21 | COCn1cc(N2C(=O)c3nc(NC45CC(C#N)(C4)C5)nc(Oc4c(C)cc(/C=C/C#N)cc4C)c3C2C)cn1 (stereo not drawn) [Example 223, (E)-3-((4-(4-(2-cyanovinyl)-2,6-dimethylphenoxy)-6-(1-(methoxymethyl)-1H-pyrazol-4-yl)-5-methyl-7-oxo-6,7-dihydro-5H-pyrrolo[3,4-d]pyrimidin-2-yl)amino)bicyclo[1.1.1]pentane-1-carbonitrile] | 38.3 nM
22 | Cc1cc(/C=C/C#N)cc(C)c1Oc1nc(NC23CC(C#N)(C2)C3)nc2c1C(C)N(c1cnn(C3CC3)c1)C2=O (stereo not drawn) [Example 224, (E)-3-((4-(4-(2-cyanovinyl)-2,6-dimethylphenoxy)-6-(1-cyclopropyl-1H-pyrazol-4-yl)-5-methyl-7-oxo-6,7-dihydro-5H-pyrrolo[3,4-d]pyrimidin-2-yl)amino)bicyclo[1.1.1]pentane-1-carbonitrile] | 51.1 nM
23 | Cc1cc(/C=C/C#N)cc(C)c1Oc1nc(NC23CC(C#N)(C2)C3)nc2c1C(C)N(c1cnn3c1CCC3)C2=O (stereo not drawn) [Example 225, (E)-3-((4-(4-(2-cyanovinyl)-2,6-dimethylphenoxy)-6-(5,6-dihydro-4H-pyrrolo[1,2-b]pyrazol-3-yl)-5-methyl-7-oxo-6,7-dihydro-5H-pyrrolo[3,4-d]pyrimidin-2-yl)amino)bicyclo[1.1.1]pentane-1-carbonitrile] | 51.8 nM
24 | Cc1cc(/C=C/C#N)cc(C)c1Oc1nc(NC23CC(C#N)(C2)C3)nc2c1C(C)N(c1cnn(C(C)C)c1)C2=O (stereo not drawn) [Example 226, (E)-3-((4-(4-(2-cyanovinyl)-2,6-dimethylphenoxy)-6-(1-isopropyl-1H-pyrazol-4-yl)-5-methyl-7-oxo-6,7-dihydro-5H-pyrrolo[3,4-d]pyrimidin-2-yl)amino)bicyclo[1.1.1]pentane-1-carbonitrile] | 84.4 nM
